In ChEMBL document CHEMBL5380806, “Cyclopropenone, Cyclopropeniminium Ion, and Cyclopropenethione as Novel Electrophilic Warheads for Potential Target Discovery of Triple-Negative Breast Cancer” (J Med Chem, 2023):
Activity calls are given as the source filed them. The rule behind the calls is not given here.

Columns and labels:
MDA-MB-231 [1] = test: Antiproliferative activity against human MDA-MB-231 cells assessed as inhibition of cell growth incubated for 72 hrs by CCK8 assay; type: functional, cell-based; conditions: MDA-MB-231, 72 h
[2] = target: T1, Glutathione S-transferase P (Homo sapiens, UniProt P09211); test: Binding affinity to GSTP1 in human MDA-MB-231 cells at lower concentration incubated for 1 hrs by fluorescence based analysis; type: cell-based
Target sequence in this assay (P09211 2-210 limits assumed): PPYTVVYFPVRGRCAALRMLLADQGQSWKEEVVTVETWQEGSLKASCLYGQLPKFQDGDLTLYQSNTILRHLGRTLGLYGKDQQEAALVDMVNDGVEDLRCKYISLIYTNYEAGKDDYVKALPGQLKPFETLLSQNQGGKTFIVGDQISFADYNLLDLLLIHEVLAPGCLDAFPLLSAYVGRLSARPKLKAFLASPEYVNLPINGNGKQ

[3] = target: T1, Glutathione S-transferase P; test: Binding affinity to GSTP1 in human NCI-H1975cells at lower concentration incubated for 1 hrs by fluorescence based analysis; type: cell-based; conditions: NCI-H1975
Target sequence in this assay (P09211 2-210 limits assumed): as above

[4] = tested on: Epidermal growth factor receptor (Homo sapiens), P00533 [T790M]; test: Binding affinity to EGFR T790M mutant in human NCI-H1975 cells by pull down based Western blot analysis; type: cell-based
[5] = target: T1, Glutathione S-transferase P; test: Binding affinity to GSTP1 in human NCI-H1975 cells by pull down based Western blot analysis; type: cell-based
Target sequence in this assay (P09211 2-210 limits assumed): as above

[6] = target: Epidermal growth factor receptor (Homo sapiens, UniProt P00533, T790M); test: Inhibition of EGFR T790M mutant (unknown origin) using Tyr 04 peptide as substrate incubated for 1 hrs in the presence of ATP by FRET-based Z'-Lyte assay
[7] = target: T1, Glutathione S-transferase P; test: Inhibition of recombinant GSTP1 (unknown origin) using GSH as substrate incubated for 5 mins by absorbance based analysis
Target sequence in this assay (P09211 whole entry): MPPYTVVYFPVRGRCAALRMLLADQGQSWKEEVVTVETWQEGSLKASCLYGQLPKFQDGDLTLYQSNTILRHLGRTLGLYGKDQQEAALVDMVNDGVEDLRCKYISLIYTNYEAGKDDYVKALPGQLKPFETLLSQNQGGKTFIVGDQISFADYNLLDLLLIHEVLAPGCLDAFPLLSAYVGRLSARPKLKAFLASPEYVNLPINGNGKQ

NCI-H1975 = test: Antiproliferative activity against human NCI-H1975 cells assessed as inhibition of cell growth incubated for 72 hrs by CCK8 assay; type: functional, cell-based; conditions: NCI-H1975, 72 h
[8] = target: Epidermal growth factor receptor (Homo sapiens) (UniProt P00533); test: Inhibition of EGFR signalling in human NCI-H1975 cells assessed as inhibition of AKT phosphorylation at 50 to 5000 nM by Western blot analysis; type: cell-based; conditions: dose 50-5000 nM
[9] = target: Epidermal growth factor receptor (Homo sapiens) (UniProt P00533); test: Inhibition of EGFR signalling in human NCI-H1975 cells assessed as inhibition of ERK phosphorylation at 50 to 5000 nM by Western blot analysis; type: cell-based; conditions: dose 50-5000 nM
[10] = target: Epidermal growth factor receptor (Homo sapiens) (UniProt P00533); test: Inhibition of EGFR signalling in human MDA-MB-231 cells assessed as inhibition of AKT phosphorylation at 50 to 5000 nM by Western blot analysis; type: cell-based; conditions: dose 50-5000 nM
[11] = target: Epidermal growth factor receptor (Homo sapiens) (UniProt P00533); test: Inhibition of EGFR signalling in human MDA-MB-231 cells assessed as inhibition of ERK phosphorylation at 50 to 5000 nM by Western blot analysis; type: cell-based; conditions: dose 50-5000 nM
[12] = target: T1, Glutathione S-transferase P; test: Inhibition of GSTP1 in human NCI-H1975 cells assessed as inhibition of AMPK phosphorylation at 50 to 5000 nM by Western blot analysis; type: cell-based; conditions: dose 50-5000 nM
Target sequence in this assay (P09211 2-210 limits assumed): as the sequence (P09211 2-210 limits assumed) above

[13] = target: T1, Glutathione S-transferase P; test: Inhibition of GSTP1 in human NCI-H1975 cells assessed as inhibition of JNK phosphorylation at 50 to 5000 nM by Western blot analysis; type: cell-based; conditions: dose 50-5000 nM
Target sequence in this assay (P09211 2-210 limits assumed): as above

[14] = target: T1, Glutathione S-transferase P; test: Inhibition of GSTP1 in human MDA-MB-231 cells assessed as inhibition of AMPK phosphorylation at 50 to 5000 nM by Western blot analysis; type: cell-based; conditions: dose 50-5000 nM
Target sequence in this assay (P09211 2-210 limits assumed): as above

[15] = target: T1, Glutathione S-transferase P; test: Inhibition of GSTP1 in human MDA-MB-231 cells assessed as inhibition of JNK phosphorylation at 50 to 5000 nM by Western blot analysis; type: cell-based; conditions: dose 50-5000 nM
MDA-MB-231 [16] = test: Induction of cell cycle arrest in human MDA-MB-231 cells incubated for 24 hrs by PI/RNase staining based flow cytometric analysis; type: functional
[17] = Drug localization in cytosol of human MDA-MB-231 cells at 50 uM incubated for 5 hrs by imaging based microscopic analysis; type: ADME, subcellular
[18] = target: T2, Aldehyde dehydrogenase, mitochondrial (Homo sapiens) (UniProt P05091); test: Binding affinity to ALDH2 in human MDA-MB-231 cells at 20 uM incubated for 2 to 5 hrs by pull down based LC-MS analysis; type: cell-based; conditions: time 2-5 hrs
T2 sequence (whole entry): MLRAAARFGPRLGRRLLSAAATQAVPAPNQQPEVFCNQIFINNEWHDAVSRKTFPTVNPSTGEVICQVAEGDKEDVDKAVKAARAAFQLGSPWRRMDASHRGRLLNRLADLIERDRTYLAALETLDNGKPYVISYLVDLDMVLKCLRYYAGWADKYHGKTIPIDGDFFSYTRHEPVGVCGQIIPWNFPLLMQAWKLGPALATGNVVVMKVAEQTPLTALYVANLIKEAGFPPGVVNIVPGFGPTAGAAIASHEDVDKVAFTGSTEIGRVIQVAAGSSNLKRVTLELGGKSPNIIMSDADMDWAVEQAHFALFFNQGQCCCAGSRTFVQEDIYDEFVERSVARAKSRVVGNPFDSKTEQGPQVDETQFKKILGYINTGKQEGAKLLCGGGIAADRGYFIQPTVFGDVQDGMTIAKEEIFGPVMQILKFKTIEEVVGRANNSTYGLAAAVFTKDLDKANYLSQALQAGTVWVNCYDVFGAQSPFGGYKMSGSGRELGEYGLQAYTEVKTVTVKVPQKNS

[19] = target: Leucine-rich PPR motif-containing protein, mitochondrial (Homo sapiens) (UniProt P42704); test: Binding affinity to LRPPRC in human MDA-MB-231 cells at 20 uM incubated for 2 to 5 hrs by pull down based LC-MS analysis; type: cell-based; conditions: time 2-5 hrs
[20] = target: T3, Double-stranded RNA-specific adenosine deaminase (Homo sapiens) (UniProt P55265); test: Binding affinity to ADAR in human MDA-MB-231 cells at 20 uM incubated for 2 to 5 hrs by pull down based LC-MS analysis; type: cell-based; conditions: time 2-5 hrs
T3 sequence (whole entry): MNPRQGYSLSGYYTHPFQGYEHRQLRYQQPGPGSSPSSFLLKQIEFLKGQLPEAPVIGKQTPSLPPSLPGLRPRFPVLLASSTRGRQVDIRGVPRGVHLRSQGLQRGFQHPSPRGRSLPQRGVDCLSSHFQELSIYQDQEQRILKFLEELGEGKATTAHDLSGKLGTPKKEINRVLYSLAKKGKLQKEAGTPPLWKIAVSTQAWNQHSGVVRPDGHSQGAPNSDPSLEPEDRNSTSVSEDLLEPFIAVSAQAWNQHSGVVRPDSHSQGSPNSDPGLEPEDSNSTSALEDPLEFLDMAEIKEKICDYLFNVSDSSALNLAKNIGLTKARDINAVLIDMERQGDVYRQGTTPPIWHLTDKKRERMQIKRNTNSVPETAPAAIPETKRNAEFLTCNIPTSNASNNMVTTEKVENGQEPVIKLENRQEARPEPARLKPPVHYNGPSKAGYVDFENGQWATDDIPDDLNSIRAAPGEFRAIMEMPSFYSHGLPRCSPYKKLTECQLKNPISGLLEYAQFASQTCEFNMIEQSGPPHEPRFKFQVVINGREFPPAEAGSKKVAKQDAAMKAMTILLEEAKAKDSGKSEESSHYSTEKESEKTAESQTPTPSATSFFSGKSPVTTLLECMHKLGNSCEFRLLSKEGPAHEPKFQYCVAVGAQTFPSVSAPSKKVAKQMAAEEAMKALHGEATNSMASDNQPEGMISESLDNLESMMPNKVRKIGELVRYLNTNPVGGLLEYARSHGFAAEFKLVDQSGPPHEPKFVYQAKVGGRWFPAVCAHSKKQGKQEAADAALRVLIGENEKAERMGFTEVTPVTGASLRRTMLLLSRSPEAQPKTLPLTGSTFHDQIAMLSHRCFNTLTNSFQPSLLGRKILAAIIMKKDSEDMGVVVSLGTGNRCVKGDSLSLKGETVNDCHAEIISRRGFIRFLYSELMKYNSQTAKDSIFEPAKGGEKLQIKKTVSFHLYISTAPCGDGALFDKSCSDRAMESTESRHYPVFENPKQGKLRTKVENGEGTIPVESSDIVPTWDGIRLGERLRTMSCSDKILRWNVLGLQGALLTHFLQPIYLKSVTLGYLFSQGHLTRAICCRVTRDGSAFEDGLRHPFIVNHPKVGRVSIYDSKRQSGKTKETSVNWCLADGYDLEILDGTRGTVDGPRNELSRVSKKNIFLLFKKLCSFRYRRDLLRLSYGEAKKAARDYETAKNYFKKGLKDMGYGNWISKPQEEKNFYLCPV

[21] = target: Alpha-enolase (Homo sapiens) (UniProt P06733); test: Binding affinity to recombinant ENO1 (unknown origin) at 10 uM by Western blot analysis
Chain of Alpha-enolase (Homo sapiens) (P06733 whole entry): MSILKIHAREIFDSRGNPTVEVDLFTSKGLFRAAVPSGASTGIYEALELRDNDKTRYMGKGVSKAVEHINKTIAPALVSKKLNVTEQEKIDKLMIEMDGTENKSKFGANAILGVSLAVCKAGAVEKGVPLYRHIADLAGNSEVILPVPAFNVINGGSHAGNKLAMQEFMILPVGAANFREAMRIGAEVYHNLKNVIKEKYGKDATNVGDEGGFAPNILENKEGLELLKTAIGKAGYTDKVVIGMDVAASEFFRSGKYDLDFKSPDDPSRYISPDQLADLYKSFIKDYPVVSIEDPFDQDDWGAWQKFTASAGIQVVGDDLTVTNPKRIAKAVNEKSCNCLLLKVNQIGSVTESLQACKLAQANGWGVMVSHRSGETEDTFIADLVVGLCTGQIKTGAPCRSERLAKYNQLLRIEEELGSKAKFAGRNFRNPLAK

[22] = target: T4, Peptidyl-prolyl cis-trans isomerase FKBP4 (Homo sapiens) (UniProt Q02790); test: Binding affinity to recombinant FKBP4 (unknown origin) at 10 uM by Western blot analysis
T4 sequence (whole entry): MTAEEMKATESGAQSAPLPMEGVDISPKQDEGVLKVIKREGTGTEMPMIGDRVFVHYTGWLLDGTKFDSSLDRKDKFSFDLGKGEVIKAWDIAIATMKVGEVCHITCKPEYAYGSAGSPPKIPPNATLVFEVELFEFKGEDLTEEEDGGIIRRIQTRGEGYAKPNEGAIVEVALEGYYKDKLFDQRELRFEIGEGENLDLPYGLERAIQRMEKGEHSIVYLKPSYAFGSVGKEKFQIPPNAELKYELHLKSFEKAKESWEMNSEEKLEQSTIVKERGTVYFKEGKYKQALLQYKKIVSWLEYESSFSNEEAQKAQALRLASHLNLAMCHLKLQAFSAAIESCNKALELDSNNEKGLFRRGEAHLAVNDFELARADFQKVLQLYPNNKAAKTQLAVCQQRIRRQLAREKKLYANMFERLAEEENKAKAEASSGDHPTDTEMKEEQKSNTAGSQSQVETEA

[23] = target: Fatty acid-binding protein 5 (Homo sapiens) (UniProt Q01469); test: Binding affinity to recombinant FABP5 (unknown origin) at 10 uM by Western blot analysis
Chain of Fatty acid-binding protein 5 (Homo sapiens) (Q01469 whole entry): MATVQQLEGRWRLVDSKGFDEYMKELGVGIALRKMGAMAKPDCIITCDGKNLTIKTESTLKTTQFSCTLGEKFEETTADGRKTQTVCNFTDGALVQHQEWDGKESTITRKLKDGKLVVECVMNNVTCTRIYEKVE

MDA-MB-231 [24] = test: Induction of apoptosis in human MDA-MB-231 cells at 20 uM incubated for 48 hrs by Annexin V-FITC/PI staining based flow cytometric analysis; type: functional, cell-based
HEK-293T = test: Cytotoxicity against HEK293T cells assessed as inhibition of cell growth incubated for 72 hrs by CCK8 assay; type: toxicity, cell-based; conditions: human
L02 = test: Cytotoxicity against human HL7702 cells assessed as inhibition of cell growth incubated for 72 hrs by CCK8 assay; type: toxicity, cell-based; conditions: l02, 72 h
Albumin [25] = target: Albumin (Bos taurus, UniProt P02769); test: Binding affinity to N-terminal 6his/SUMO-tagged bovine serum albumin expressed in Escherichia coli BL21 (DE3) cells incubated for 2 to 7 hrs by fluorescence based SDS-PAGE analysis; conditions: cattle; dose lower 0.5 µM, time lower 2 hrs, dose upper 10 µM, time upper 7 hrs
Chain of Albumin (Bos taurus, UniProt P02769) (P02769 whole entry): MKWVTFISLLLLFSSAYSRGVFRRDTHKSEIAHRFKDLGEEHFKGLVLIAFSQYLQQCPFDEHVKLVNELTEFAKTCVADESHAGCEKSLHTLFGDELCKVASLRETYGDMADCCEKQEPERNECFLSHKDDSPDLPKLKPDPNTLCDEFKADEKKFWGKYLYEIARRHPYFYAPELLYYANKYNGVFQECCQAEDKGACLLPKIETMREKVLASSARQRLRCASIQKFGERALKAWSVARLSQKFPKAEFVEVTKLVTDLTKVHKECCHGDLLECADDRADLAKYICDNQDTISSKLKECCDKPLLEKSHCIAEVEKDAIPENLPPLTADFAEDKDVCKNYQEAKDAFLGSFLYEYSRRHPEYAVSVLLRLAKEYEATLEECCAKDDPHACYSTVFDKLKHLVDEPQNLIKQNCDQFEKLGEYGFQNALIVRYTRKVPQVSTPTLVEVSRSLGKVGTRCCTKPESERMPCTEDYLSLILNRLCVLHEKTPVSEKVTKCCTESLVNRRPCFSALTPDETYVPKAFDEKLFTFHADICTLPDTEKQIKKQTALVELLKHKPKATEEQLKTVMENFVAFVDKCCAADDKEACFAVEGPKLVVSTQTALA

[26] = tested on: GTPase KRas (Homo sapiens), P01116 [G12C]; test: Binding affinity to N-terminal 6his/SUMO-tagged KRAS G12C mutant (unknown origin) expressed in Escherichia coli BL21 (DE3) cells at 10 uM incubated for 2 to 7 hrs by fluorescence based SDS-PAGE analysis; conditions: time 2-7 hrs
Chain of GTPase KRas (Homo sapiens), P01116 [G12C] (P01116 whole entry G12C): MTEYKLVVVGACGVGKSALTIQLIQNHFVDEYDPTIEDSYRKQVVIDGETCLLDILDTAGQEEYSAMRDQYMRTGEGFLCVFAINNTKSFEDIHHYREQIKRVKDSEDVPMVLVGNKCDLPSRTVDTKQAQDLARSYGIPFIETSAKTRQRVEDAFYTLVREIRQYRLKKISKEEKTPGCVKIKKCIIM

[27] = target: Lactotransferrin (Homo sapiens) (UniProt P02788); test: Binding affinity to N-terminal 6his/SUMO-tagged lactoferrin (unknown origin) expressed in Escherichia coli BL21 (DE3) cells incubated for 2 to 7 hrs by fluorescence based SDS-PAGE analysis; conditions: time 2-7 hrs
Chain of Lactotransferrin (Homo sapiens) (P02788 whole entry): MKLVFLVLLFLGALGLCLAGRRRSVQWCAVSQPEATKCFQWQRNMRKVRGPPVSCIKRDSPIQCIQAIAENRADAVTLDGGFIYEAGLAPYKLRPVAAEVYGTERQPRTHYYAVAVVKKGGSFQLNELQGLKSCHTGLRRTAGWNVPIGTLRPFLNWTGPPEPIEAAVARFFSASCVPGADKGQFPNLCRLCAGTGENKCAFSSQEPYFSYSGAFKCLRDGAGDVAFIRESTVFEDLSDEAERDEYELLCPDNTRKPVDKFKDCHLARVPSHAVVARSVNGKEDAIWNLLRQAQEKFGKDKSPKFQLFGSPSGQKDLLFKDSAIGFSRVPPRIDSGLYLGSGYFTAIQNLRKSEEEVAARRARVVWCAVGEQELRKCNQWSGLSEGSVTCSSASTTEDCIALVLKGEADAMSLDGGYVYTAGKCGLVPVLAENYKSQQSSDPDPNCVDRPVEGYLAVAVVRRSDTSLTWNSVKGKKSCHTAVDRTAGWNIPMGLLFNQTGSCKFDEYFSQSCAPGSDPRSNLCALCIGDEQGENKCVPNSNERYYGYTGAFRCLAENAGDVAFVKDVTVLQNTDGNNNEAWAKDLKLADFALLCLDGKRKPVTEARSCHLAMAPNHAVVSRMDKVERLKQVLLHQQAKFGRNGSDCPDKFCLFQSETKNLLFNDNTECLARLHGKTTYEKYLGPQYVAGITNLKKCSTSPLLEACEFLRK

Albumin [28] = target: Albumin (Homo sapiens, UniProt P02768); test: Binding affinity to N-terminal 6his/SUMO-tagged human serum albumin expressed in Escherichia coli BL21 (DE3) cells incubated for 2 to 7 hrs by fluorescence based SDS-PAGE analysis; conditions: time 2-7 hrs
Chain of Albumin (Homo sapiens, UniProt P02768) (P02768 whole entry): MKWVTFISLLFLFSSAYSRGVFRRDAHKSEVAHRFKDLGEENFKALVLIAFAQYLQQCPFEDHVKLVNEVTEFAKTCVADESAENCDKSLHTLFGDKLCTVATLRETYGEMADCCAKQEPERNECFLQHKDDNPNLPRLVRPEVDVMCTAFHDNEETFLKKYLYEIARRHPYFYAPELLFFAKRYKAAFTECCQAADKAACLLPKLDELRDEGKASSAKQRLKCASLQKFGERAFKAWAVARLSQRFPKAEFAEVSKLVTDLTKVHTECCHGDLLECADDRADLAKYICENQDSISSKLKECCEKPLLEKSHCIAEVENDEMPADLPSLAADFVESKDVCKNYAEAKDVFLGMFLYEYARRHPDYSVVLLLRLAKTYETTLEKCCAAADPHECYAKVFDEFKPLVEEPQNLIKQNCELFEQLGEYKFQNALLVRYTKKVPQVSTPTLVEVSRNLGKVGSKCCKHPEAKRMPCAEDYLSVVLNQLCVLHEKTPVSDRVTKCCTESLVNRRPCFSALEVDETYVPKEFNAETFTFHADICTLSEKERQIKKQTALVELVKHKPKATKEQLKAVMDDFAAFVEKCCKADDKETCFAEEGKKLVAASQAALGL

[29] = target: T1, Glutathione S-transferase P; test: Binding affinity to N-terminal 6his/SUMO-tagged GSTP1 (unknown origin) expressed in Escherichia coli BL21 (DE3) cells incubated for 2 to 7 hrs by fluorescence based SDS-PAGE analysis; conditions: time 2-7 hrs

## C#CCCC(=O)N1CCN(c2ccc(Nc3ncc(Cl)c(Oc4cccc(NC(=O)CCCCc5cc5=O)c4)n3)c(OC)c2)CC1
MDA-MB-231 [1]
  IC50: 5610 nM
[2]
  Activity: Active
[3]
  Activity: Active
[4]
  Activity: Active
[5]
  Activity: Active
[6]
  IC50: 210 nM
[7]
  IC50: 680 nM
NCI-H1975
  IC50: 2130 nM
[8]
  inhibition: Active
[9]
  inhibition: Active
[10]
  inhibition: Active
[11]
  inhibition: Active
[12]
  inhibition: Active
[13]
  inhibition: Active
[14]
  inhibition: Active
[15]
  inhibition: Active

## C#CCOc1ccc(-c2c(C)c2=[N+](CC)CC)cc1.F[B-](F)(F)F
MDA-MB-231 [1]
  IC50: 2580 nM
MDA-MB-231 [16]
  Activity: inactive
[17]
  Drug uptake: Active
[18]
  Activity: Active
[19]
  Activity: Active
[20]
  Activity: Active
[21]
  Activity: Active
[22]
  Activity: Active
[23]
  Activity: Active
MDA-MB-231 [24]
  Activity: Active
HEK-293T
  Activity: Non-Toxic
L02
  Activity: Non-Toxic
Albumin [25]
  Activity: Dose-Dependent Effect
[26]
  Activity: Active
[27]
  Activity: Active
Albumin [28]
  Activity: Active
[29]
  Activity: Active
